What all share (assay type): binding
For assay [1], the target named is T1, Growth factor receptor-bound protein-2 (GRB2) (Homo sapiens, UniProt P62993). Nature of the assay: SPR (GRB2 immobilized on CM5 chip); supported by competition ELISA with GST-GRB2 and cellulose nitrate filtration assay.
In assay [2] the target is T1, Growth factor receptor-bound protein-2 (GRB2). Nature of the assay: SPR (GRB2 immobilized on CM5 chip); authors call conditions sub-par for this compound.
For assay [3] the target is unchanged. Nature of the assay: SPR (GRB2 immobilized on CM5 chip); authors call conditions sub-par; only two non-zero concentrations shown. The source says:
SPR (GRB2 immobilized on CM5 chip); authors call conditions sub-par; only two non-zero concentrations shown on Growth factor receptor-bound protein-2 (GRB2) | SPR data of NHD2-107 versus GRB2.

T1 sequence (P62993 whole entry): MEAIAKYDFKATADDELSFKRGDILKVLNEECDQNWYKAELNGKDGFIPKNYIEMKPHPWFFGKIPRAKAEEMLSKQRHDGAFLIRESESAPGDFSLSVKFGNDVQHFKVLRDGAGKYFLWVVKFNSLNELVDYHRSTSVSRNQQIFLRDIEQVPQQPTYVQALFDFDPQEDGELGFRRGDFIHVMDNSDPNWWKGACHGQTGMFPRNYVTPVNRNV

In assay [1], `CC(=O)c1c(C)oc2nc3ccccc3nc12` [NHD2-15] gave a dissociation constant Kd of 119 ± 2 µM.

The molecule `COC(=O)c1c(C)oc2nc3ccccc3nc12` [NHD2-92] registered a Kd in assay [2] of 1000 ± 20 µM. Take `CCOC(=O)c1c(-c2ccccc2)oc2nc3ccccc3nc12` [NHD2-107]: binding in assay [3] was characterised by a dissociation constant (Kd) of 3400 ± 100 µM. `CCOC(=O)c1c(C)oc2nc3ccccc3nc12` [NHD2-114] yielded a Kd in assay [2] of 440 ± 7 µM.

The values above are taken from publication PMC7418987, “NHD2-15, a novel antagonist of Growth Factor Receptor-Bound Protein-2 (GRB2), inhibits leukemic proliferation” (PLoS ONE, 2020).
